What was measured:
[1] = target: heat-treated human liver microsomes (Homo sapiens, UniProt P08684); assay: Enzyme kinetics in heat-treated HLM (FMO inactivation); format: in vitro ADME; settings: human, microsomes
Experimental: (§1) In vitro incubations were carried out in 100‐mM potassium phosphate buffer (pH 7.4) and 5‐mM MgCl2 with a total volume of 200 µL. Substrate and either human liver microsomes (HLM, BD Biosciences, mixed gender pool of n = 50) or recombinant human enzymes (BD Biosciences) were added and pre‐incubated for 3 minutes at 37°C. The reaction was started by addition of a fresh solution of NADPH (1 mmol/L final concentration). The samples were incubated at 37°C with agitation of 500 rpm. For incubations with CYP2A6, CYP2C9, CYP2C18, and CYP4A11, the phosphate buffer was replaced by TRIS buffer (100 mmol/L, pH 7.4) and for flavin‐containing monooxygenases (FMOs), a glycine buffer (50 mM, pH 9.5) was used.
(§2) The enzymatic reaction was stopped and the protein was precipitated by addition of an equal volume of methanol. After 30 min at −80°C, the samples were centrifuged at 30'000 x g for 15 min. The supernatant was withdrawn. Aliquots were analyzed by LSC and the supernatant was diluted with water to obtain a final solution containing less than 20% of the organic solvent. For samples of low substrate concentration, supernatants were evaporated to dryness under nitrogen, then re‐suspended in water containing less than 20% of methanol. Samples were analyzed by HPLC combined with radiodetection. […]

[2] = tested on: heat-treated human liver microsomes (Homo sapiens); assay: as above; format: in vitro ADME; settings: heated vs non-heated control HLM
Experimental: as §1, §2

[3] = Human ADME study: mass balance, excretion of radioactivity in urine and feces; format: in vivo; settings: for radioactive dose excreted in urine: N=6, after 504 hours, mean; for Cumulative excretion of radioactivity, Total (urine and feces, mean) / Cumulative excretion of radioactivity, Urine (mean): single oral dose 600 mg, healthy male volunteers, n=6
Experimental: This single‐center, open‐label, single oral dose study enrolled six healthy, non‐smoking, male Caucasian volunteers who were determined as being in good health according to their medical history, physical examination, vital signs, electrocardiogram, laboratory tests, and urinalysis. Healthy male volunteers were selected as the foundation of the extensive human ADME data should be based on a small cohort (6) of young healthy male volunteers with subsequent extension/bridging to actual patients as needed for the investigation of variables such as age, gender, ethnicity, and health on the metabolic profile. Subjects with relevant radiation exposure of > 0.2 mSv in the 12 months prior to the initiation of the study were excluded. […] The study protocol and dosimetry calculations were reviewed by the Independent Ethics Committee for the center, and written informed consent was obtained from all subjects before entering the study.
Subjects continued to fast for 4 hours after drug administration.
Radioactivity contents in urine and feces homogenates were determined at the bioanalytical laboratory of PRA International, Zuidlaren, the Netherlands. For urine, duplicate (1000 µL) aliquots were placed into 7‐mL glass vials (Perkin Elmer), after which 5 mL of scintillation cocktail (Ultima Gold™, Perkin Elmer) was added. After vortex mixing for 5 seconds, each sample was placed in a Tri‐Carb™ 3100 TR liquid scintillation analyzer (Perkin Elmer, Waltham, MA, USA) 30 minutes before counting. The total [^14C]‐radioactivity of the samples was determined by counting until a statistical error (two standard deviations) of 0.5% was obtained with a counting time of 10 or 30 minutes, depending on the level of radioactivity.
For feces homogenates, quadruplicate, accurately weighed (500 mg) aliquots were dried in a stove at 50 °C for 3 hours. […] The absorber agent for CO2 was 7‐mL Carbo‐Sorb® E (Perkin Elmer). At the end of the combustion cycle, the absorber was mixed with 13 mL of the scintillant Permafluor® E (Perkin Elmer). The samples were placed in the liquid scintillation analyzer for 60 minutes before counting. The total [^14C]‐radioactivity of the samples was determined by counting until a statistical error (2 s) of 0.5% was obtained with a counting time of 10 or 30 minutes, depending on the level of radioactivity.

heat-treated human liver microsomes (Homo sapiens), sequence (P08684 2-503): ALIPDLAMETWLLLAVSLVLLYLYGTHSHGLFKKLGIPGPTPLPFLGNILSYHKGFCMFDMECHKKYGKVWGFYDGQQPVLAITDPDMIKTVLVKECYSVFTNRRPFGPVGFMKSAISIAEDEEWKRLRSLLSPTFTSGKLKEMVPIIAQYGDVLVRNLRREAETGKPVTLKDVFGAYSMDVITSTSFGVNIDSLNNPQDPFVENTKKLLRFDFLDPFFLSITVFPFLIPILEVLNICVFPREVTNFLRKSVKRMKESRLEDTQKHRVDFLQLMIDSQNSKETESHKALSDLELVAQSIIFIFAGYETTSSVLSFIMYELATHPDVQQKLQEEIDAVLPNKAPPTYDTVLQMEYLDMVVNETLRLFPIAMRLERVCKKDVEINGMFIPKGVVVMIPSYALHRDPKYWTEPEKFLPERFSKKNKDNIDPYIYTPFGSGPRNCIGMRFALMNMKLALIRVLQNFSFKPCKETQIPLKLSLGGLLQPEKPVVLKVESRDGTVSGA
heat-treated human liver microsomes, sequence (P08684 2-503): as above

With `CN(C)C(=O)c1cc2cnc(Nc3ccc(N4CCNCC4)cn3)nc2n1C1CCCC1` [ribociclib, Ribociclib] the Ki at 0.25 h [1] was 328 µM, the “FMO metabolism as share of intrinsic clearance in HLM” value [2] was “about 15%” and the “radioactive dose excreted in urine” value ([3]; human, single oral 600 mg [14C]-ribociclib) was 22.6%. The “radioactive dose excreted in urine” value ([3]; human, single oral 600 mg [14C]-ribociclib, listed as [^14C]‐ribociclib) was 22.6 ± 5.39%, the “mass balance (total recovery of radioactivity)” value ([3]; human, single oral 600 mg [14C]-ribociclib, N=6, mean) was 91.7 ± 1.01% and the “Oral absorption (estimate)” value ([3]; human, radioactivity in urine plus radiolabeled metabolites in feces, assuming all formed systemically) was “approximately 58.8%”. For the same compound, the “Cumulative excretion of radioactivity, Total (urine and feces, mean)” value (from here on “Cumulative excretion … (urine and feces, mean)”) ([3]; time 0 h) was 0 % of dose, the “Cumulative excretion of radioactivity, Urine (mean)” value (“Cumulative excretion … (mean)” below) ([3]; time 0 h) was 0 % of dose and the “Cumulative excretion … (mean)” value ([3]; time 6 h) was 4.85 % of dose. For the same compound, the “Cumulative excretion … (mean)” value ([3]; time 12 h) was 9.15 % of dose, the “Cumulative excretion … (urine and feces, mean)” value ([3]; time 24 h) was 17.2 % of dose and the “Cumulative excretion … (mean)” value ([3]; time 24 h) was 12.9 % of dose. For the same compound, the “Cumulative excretion … (urine and feces, mean)” value ([3]; time 48 h) was 47.5 % of dose, the “Cumulative excretion … (mean)” value ([3]; time 48 h) was 17.0 % of dose and the “Cumulative excretion … (urine and feces, mean)” value ([3]; time 72 h) was 63.9 % of dose. The “Cumulative excretion … (mean)” value ([3]; time 72 h) was 19.0 % of dose, the “Cumulative excretion … (urine and feces, mean)” value ([3]; time 96 h) was 75.9 % of dose and the “Cumulative excretion … (mean)” value ([3]; time 96 h) was 20.2 % of dose. For the same compound, the “Cumulative excretion … (urine and feces, mean)” value ([3]; time 120 h) was 79.7 % of dose, the “Cumulative excretion … (mean)” value ([3]; time 120 h) was 20.9 % of dose and the “Cumulative excretion … (urine and feces, mean)” value ([3]; time 144 h) was 83.8 % of dose. For the same compound, the “Cumulative excretion … (mean)” value ([3]; time 144 h) was 21.4 % of dose, the “Cumulative excretion … (urine and feces, mean)” value ([3]; time 168 h) was 86.7 % of dose and the “Cumulative excretion … (mean)” value ([3]; time 168 h) was 21.8 % of dose. For the same compound, the “Cumulative excretion … (urine and feces, mean)” value ([3]; time 216 h) was 88.6 % of dose, the “Cumulative excretion … (mean)” value ([3]; time 216 h) was 22.2 % of dose and the “Cumulative excretion … (urine and feces, mean)” value ([3]; time 240 h) was 89.1 % of dose. The “Cumulative excretion … (mean)” value ([3]; time 240 h) was 22.3 % of dose, the “Cumulative excretion … (urine and feces, mean)” value ([3]; time 264 h) was 89.6 % of dose and the “Cumulative excretion … (mean)” value ([3]; time 264 h) was 22.5 % of dose. The “Cumulative excretion … (urine and feces, mean)” value ([3]; time 288 h) was 90.3 % of dose, the “Cumulative excretion … (mean)” value ([3]; time 288 h) was 22.5 % of dose and the “Cumulative excretion … (urine and feces, mean)” value ([3]; time 336 h) was 90.9 % of dose. The “Cumulative excretion … (mean)” value ([3]; time 336 h) was 22.6 % of dose, the “Cumulative excretion … (urine and feces, mean)” value ([3]; time 360 h) was 91.1 % of dose and the “Cumulative excretion … (mean)” value ([3]; time 360 h) was 22.6 % of dose. The “Cumulative excretion … (urine and feces, mean)” value ([3]; time 384 h) was 91.3 % of dose, the “Cumulative excretion … (mean)” value ([3]; time 384 h) was 22.6 % of dose and the “Cumulative excretion … (urine and feces, mean)” value ([3]; time 408 h) was 91.4 % of dose. The “Cumulative excretion … (mean)” value ([3]; time 408 h) was 22.6 % of dose, the “Cumulative excretion … (urine and feces, mean)” value ([3]; time 432 h) was 91.6 % of dose and the “Cumulative excretion … (mean)” value ([3]; time 432 h) was 22.6 % of dose. The “Cumulative excretion … (urine and feces, mean)” value ([3]; time 456 h) was 91.6 % of dose, the “Cumulative excretion … (mean)” value ([3]; time 456 h) was 22.6 % of dose and the “Cumulative excretion … (urine and feces, mean)” value ([3]; time 480 h) was 91.7 % of dose. For the same compound, the “Cumulative excretion … (mean)” value ([3]; time 480 h) was 22.6 % of dose, the “Cumulative excretion … (urine and feces, mean)” value ([3]; time 504 h) was 91.7 % of dose and the “Cumulative excretion … (mean)” value ([3]; time 504 h) was 22.6 % of dose.
